Reference: patent US8883512B1, “Method for diagnosing gestational diabetes, preeclampsia, and fetal growth restriction” (priority 2011, dated 2014)
Entries after “also recorded” stand apart in the source; their conditions may differ.

Key:
[1] = tested on: pregnant Sprague-Dawley rats; test: Streptozotocin (STZ) animal model of gestational diabetes and preeclampsia: blood glucose, liver enzymes, arterial pressure, fetal and placental weights; type: in vivo, rat
Experimental: Pregnant Sprague-Dawley rats on day 6 of gestation were randomly assigned to STZ at 75 mg/kg I.P. or saline-infusion. On day 19, carotid artery catheters were implanted for measurement of arterial pressure, after which the animals were sacrificed, fetal and placental weights determined and blood samples obtained to measure liver enzymes and glucose. Subsequently, using the same procedure, a separate group of pregnant rats (n=10/group) was randomly assigned to receive STZ at 75 mg/kg I.P. or saline infusion. Serum concentrations of retinol, retinoic acid, and retinyl esters were determined in these animals by HPLC on Day 20. Retinoid toxicity was defined as the percentage of retinyl esters >10%.
(§1) The specific aims of this second experiment were to test the hypothesis that complications associated with GDM could be ameliorated with the retinoic acid receptor-alpha (RAR-alpha) antagonist, Ro41-5253. On day 6 of gestation, Sprague-Dawley rats were randomly assigned to one of five groups: 1) saline-infused controls; 2) STZ, 75 mg/kg I.P.; 3) STZ, 50 mg/kg I.P.; 4) STZ, 75+Ro41-5253 (0.5 mg/kg I.P. daily for 10 d); or 5) STZ, 75+Ro41-5253 (1.0 mg/kg I.P. daily for 10 days). Ro41-5253 was provided as a gift from Roche. On day 19, after carotid artery catheters were implanted for measurement of arterial pressure, the animals were sacrificed, fetal and placental weights were determined, and blood samples were obtained to measure liver enzymes and glucose.

[2] = tested on: pregnant Sprague-Dawley rats; test: RAR-alpha antagonist Ro41-5253 in the STZ (75 mg/kg) model of gestational diabetes; type: in vivo, rat
Experimental: as §1

[3] = better designed (low bias) trials of antioxidant supplements; cited from earlier work
[4] = STZ 75 mg/kg, I.P. Ro41-5253, listed as retinoid receptor antagonist

CN(N=O)C(=O)N[C@H]1C(O)O[C@H](CO)[C@@H](O)[C@@H]1O (mixture of isomers) [STZ, streptozotocin]
blood glucose levels (mean) ([1]; STZ 75 mg/kg I.P. on gestation day 6, blood on day 19, saline controls 104): 533 mg/dL | pup weights (mean) ([1]; STZ 75 mg/kg I.P., controls 4.6): 1.4 g | alanine aminotransferase (mean) ([1]; STZ 75 mg/kg I.P., controls 63): 326 U/L | alkaline phosphatase (mean) ([1]; STZ 75 mg/kg I.P., controls 123): 576 U/L | asparate aminotransferase levels (mean) ([1]; STZ 75 mg/kg I.P., controls 152): 842 U/L | placental weights ([1]; STZ, day 19): unaffected | fetus size versus controls ([1]; groups receiving 75 mg/kg of STZ alone): smaller than controls | arterial pressure ([1]; groups receiving both doses of STZ, P=0.1386): non-significant trend towards increased levels

CCCCCCCOc1cc2c(cc1/C(C)=C/c1ccc(C(=O)O)cc1)C(C)(C)CCS2(=O)=O [Ro41-5253]
effect on blood glucose following STZ ([2]; Ro41-5253 0.5 mg/kg I.P. daily for 10 d, STZ 75 mg/kg): not by the lower dose; also recorded: no effect | effect on blood glucose following STZ ([2]; Ro41-5253 1.0 mg/kg I.P. daily for 10 days, STZ 75 mg/kg): reduced; also recorded: decrease of approximately one-third | reduction of alkaline phosphatase levels induced by STZ ([2]; STZ 75 mg/kg, FIG. 3): about 20% | effect on alanine aminotransferase (ALT) elevation following STZ ([2]; STZ 75 mg/kg, I.P. Ro41-5253): markedly reduced (almost to control levels) | effect on aspartate aminotransferase (AST) elevation following STZ ([2]; STZ 75 mg/kg, I.P. Ro41-5253): markedly reduced (almost to control levels) | effect on alkaline phosphatase (AP) levels induced by STZ ([2]; STZ 75 mg/kg, I.P. Ro41-5253, listed as RAR-alpha antagonist): increased alkaline phosphatase levels in all animals, with or without | effect on alanine aminotransferase (ALT) elevation following STZ [2, 4]: markedly reduced | effect on aspartate aminotransferase (AST) elevation following STZ [2, 4]: markedly reduced | placental weights ([2]; STZ model, day 19): unaffected | effect on trend towards increased arterial pressure ([2]; higher dose of STZ, doses investigated): did not appear to be ameliorated

CC1=C(/C=C/C(C)=C/C=C/C(C)=C/C=C/C=C(C)/C=C/C=C(C)/C=C/C2=C(C)CCCC2(C)C)C(C)(C)CCC1 [beta-carotene]
increased risk of mortality [3]: 7%

vitamin A
increased risk of mortality [3]: 16%

vitamin E
increased risk of mortality [3]: 4%
